The results in this text go back to PubChem BioAssay AID1996.

≈ marks a conversion by molar mass, not a printed value.

For this data set the following is noted: buffer; pH 7.4; 200.0 µM.
In the case of `Cc1ccc2c(C)c(C(=O)NCCN3CCCC(O)C3)oc2c1C` (stereo unspecified), the kinetic solubility amounted to 42.3 µg/mL (≈ 128 µM).

Compound `O=C(CNC(=O)c1ccc2ccccc2c1)NCc1ccccc1F` yielded a kinetic solubility of 7.8 µg/mL (≈ 23.2 µM).

For `O=C(O)CSc1nccc2ccccc12`, the kinetic solubility was above 32.9 µg/mL.

As for `Cc1cccc(NCc2ccc([N+](=O)[O-])s2)c1`, the solubility (kinetic) turned out to be 15.1 µg/mL (≈ 60.8 µM).

As for `COc1ccccc1NC(=O)c1ccc[n+]([O-])c1`, the solubility (kinetic) was above 36.6 µg/mL.

Regarding `O=C(NCC1CCCO1)C1CCCN1C(=O)Nc1ccc(Cl)cc1` (stereo unspecified), the kinetic solubility is above 52.8 µg/mL.

Consider `C/C=C/C=C(/NC(=O)c1ccccc1)C(=O)Nc1ccccc1`, for which the solubility (kinetic) came to 2.3 µg/mL (≈ 7.51 µM).

The compound `O=C(C[n+]1ccncc1)c1ccccc1.[Br-]` had a kinetic solubility of 6.4 µg/mL. Against the preceding compound, the solubility kinetic is about 2.8-fold higher.

Consider `COc1ccccc1NC(=O)c1ccc(NC(=O)COC(=O)c2cncc(Br)c2)cc1`, for which the solubility (kinetic) worked out at 10 µg/mL (≈ 20.6 µM).

`CCC(C)NC(=O)C1CC(=O)N(CCc2ccc(F)cc2)C1` (stereo unspecified) gave a kinetic solubility above 46 µg/mL.

`O=C(N1CCCCC1)N1CCN(S(=O)(=O)c2ccccc2)CC1` had a solubility (kinetic) above 50.6 µg/mL.

The compound `COc1ccc(-c2csc(NC(=O)CN3C(=O)C4CC=CCC4C3=O)n2)cc1OC` (stereo unspecified) came in with a kinetic solubility of 16 µg/mL (≈ 37.4 µM).

`CCC1CN(C(=O)Nc2cccc(C)c2)c2cc(C)ccc2O1` (stereo unspecified) yielded a kinetic solubility of 7.5 µg/mL (≈ 24.2 µM).

As for `Cc1cc(=O)[nH]c(SCC(=O)NCC2CCCO2)n1` (stereo unspecified), the kinetic solubility was above 42.5 µg/mL.

`O=C(COC(=O)c1ccc(Cl)nc1)NCCC1=CCCCC1` came in with a kinetic solubility of 36.6 µg/mL (≈ 113 µM).

For the compound `N#Cc1c(N)c(C(=O)c2ccccc2)n2ccccc12`, the solubility (kinetic) came to 31.4 µg/mL (≈ 120 µM).

For `O=C(c1ccc(=O)[nH]c1)N1CCCc2ccccc21`, the kinetic solubility was above 38.1 µg/mL.

For `COc1ccc(OCC(=O)Nc2nccs2)cc1`, the kinetic solubility was found to be 39.1 µg/mL (≈ 148 µM).

`CCOc1ccc(S(=O)(=O)NC2CC2)cc1`: the solubility (kinetic) was above 36.2 µg/mL.

With `Cc1ccc(N2C(=O)CC(Sc3nc(C)cc(C)n3)C2=O)cc1` (stereo unspecified), the solubility (kinetic) came out at 34.7 µg/mL (≈ 106 µM).

In turn, `CN(C(=O)Cn1cc([N+](=O)[O-])ccc1=O)C1CCCCC1` showed a solubility (kinetic) of 41.7 µg/mL (≈ 142 µM). The solubility kinetic values of the last two compounds are within 1.5-fold of each other.

`CCOc1ccc(NC(=S)NC23CN4CN(CN(C4)C2)C3)cc1` had a kinetic solubility above 50 µg/mL.

`CC(Cc1ccccc1)NC(=O)CC(c1ccccc1)c1ccccc1O` (stereo unspecified) yielded a solubility (kinetic) of 10.8 µg/mL (≈ 30 µM).

Compound `S=C1NCN(Cc2cccnc2)CN1c1cccc(Cl)c1` displayed a kinetic solubility above 47.8 µg/mL.

Regarding `COc1cc(CN2CCNCC2)cc(OC)c1OC.Cl`, the solubility (kinetic) came to 23.1 µg/mL.

As for `COc1ccc(Nc2ncc(C#N)c(N)n2)c(OC)c1`, the kinetic solubility was determined as 6.6 µg/mL (≈ 24.3 µM). This solubility kinetic lies about 3.5-fold lower than the previous one.

`N#Cc1ccsc1NC(=O)CCS(=O)(=O)c1ccccc1` yielded a kinetic solubility of 41.7 µg/mL (≈ 130 µM).

With `CC(NC(=O)CCNC(=O)c1ccccc1Cl)c1ccc(-n2ccnc2)cc1` (stereo unspecified), the solubility (kinetic) is above 59.5 µg/mL.

Compound `O=C1/C(=C\c2ccc(O)c(O)c2)N=C2CCCCCN12` gave a kinetic solubility above 40.8 µg/mL.

Compound `CCN(CC)CC#Cc1ccc(C)cc1.Cl` came in with a solubility (kinetic) of 17.1 µg/mL.

As for `CC(C)NCc1nnc(-c2ccccc2Cl)o1`, the solubility (kinetic) is above 37.8 µg/mL.

Consider `O=C(NCCN1CCOCC1)c1ccccc1Cl`, for which the kinetic solubility is above 40.3 µg/mL.

In the case of `O/N=C(\CN1CCCCC1)c1ccccc1`, the solubility (kinetic) is above 32.7 µg/mL.

In turn, `COc1cc(CC(=O)Nc2cccc(S(=O)(=O)N(C)c3ccccc3)c2)cc(OC)c1OC` had a solubility (kinetic) of 14.1 µg/mL (≈ 30 µM).

As for `C=CCOc1c(CNc2ccc3[nH]c(=O)[nH]c3c2)cccc1OC`, the kinetic solubility is above 48.8 µg/mL.

Consider `NC(=O)c1cc(S(=O)(=O)NCCc2ccccc2)cs1`, for which the kinetic solubility worked out at 40.3 µg/mL (≈ 130 µM).

`Cc1ccc(C23CCC(=O)N2C(C(=O)O)CS3)c(C)c1` (stereo unspecified) registered a solubility (kinetic) above 43.7 µg/mL.

`COC(c1ccccc1)(c1ccccc1)C(Oc1nc(C)cc(C)n1)C(=O)O` (stereo unspecified): the solubility (kinetic) is above 56.8 µg/mL.

Turning to `Cc1ccc(N2C(=O)CN(Cc3ccccc3)C2=S)cc1C`, the kinetic solubility stood at 0.3 µg/mL (≈ 0.966 µM).

The compound `Cc1cc(C)cc(N=C2NC(=O)CS2)c1` had a solubility (kinetic) above 33 µg/mL.

`O=C(COC(=O)c1cc(S(=O)(=O)N2CCOCC2)ccc1F)NC1CC1` had a kinetic solubility of 55.1 µg/mL (≈ 143 µM).

Usually solubility (kinetic) stands for solubility judged after dilution from a stock solution rather than from solid.
